From BindingDB's records for doi:10.1021/jm00352a017 (1983)

Legend:
[1] = Inhibition of rat kidney pyruvate kinase (PK-K)
[2] = Inhibition of rat kidney pyruvate kinase (PK-K) at 6.7 mM
[3] = Michaelis-Menten constant for inhibition of rat kidney pyruvate kinase (PK-K)
[4] = Inhibition of rat liver pyruvate kinase (PK-L) at 3.6 mM

**Q.** Which Ki [1] does the source give for `CCSc1nc2c(N)ncnc2n1C1O[C@H](COP(=O)(O)OP(=O)(O)O)[C@@H](O)[C@H]1O` (stereo partly specified) here?
**A.** The Ki was 3.9 mM.

**Q.** With `CCNc1nc2c(N)ncnc2n1C1O[C@H](COP(=O)(O)OP(=O)(O)O)[C@@H](O)[C@H]1O` (stereo partly specified) as the compound, how does the Ki [1] read?
**A.** The Ki was 2.9 mM.

**Q.** For `C[C@@H](OP(=O)(O)OP(=O)(O)O)[C@H]1OC(n2cnc3c(N)ncnc32)[C@H](O)[C@@H]1O` (stereo partly specified), which Ki [2] is on record?
**A.** The Ki was 10.9 mM.

**Q.** What about the Ki [3] of the same compound?
**A.** The Ki was 8 mM.

**Q.** Which Ki [4] does the source give for `CO[C@H]1[C@@H](O)[C@H](n2cnc3c(N)ncnc32)O[C@@H]1COP(=O)(O)OP(=O)(O)O` [[5-(6-amino-9H-purin-9-yl)-4-hydroxy-3-methoxytetrahydrofuran-2-yl]methyl trihydrogen diphosphate] here?
**A.** The Ki was 7 mM.

**Q.** Which Ki [1] does the source give for `CSc1nc2c(N)ncnc2n1C1O[C@H](COP(=O)(O)OP(=O)(O)O)[C@@H](O)[C@H]1O` (stereo partly specified) here?
**A.** The Ki was 5 mM.
